According to patent US8298781B2, “Compositions and methods for characterizing and regulating olfactory sensation” (Duke University, priority 2007, dated 2012):
Residue numbers refer to the chain shown, from its start.

Tests used:
OR7D4 RT = target: T1, OR7D4 RT (Homo sapiens, UniProt Q8NG98); assay: Luciferase assay of odorant receptor activation in Hana3A cells, OR7D4 RT; assay type: cell-based; design: dose or concentration left out as unconfirmed; conditions: for response of OR7D4 RT (normalized luciferase), ligand specificity panel: panel of 66 odors and 2 solvents at or 1,130,000 dilution
T1 construct: expressed in transfected cells; host or cells: Hana3A (HEK293T-derived)
T1 sequence (Q8NG98 1-312): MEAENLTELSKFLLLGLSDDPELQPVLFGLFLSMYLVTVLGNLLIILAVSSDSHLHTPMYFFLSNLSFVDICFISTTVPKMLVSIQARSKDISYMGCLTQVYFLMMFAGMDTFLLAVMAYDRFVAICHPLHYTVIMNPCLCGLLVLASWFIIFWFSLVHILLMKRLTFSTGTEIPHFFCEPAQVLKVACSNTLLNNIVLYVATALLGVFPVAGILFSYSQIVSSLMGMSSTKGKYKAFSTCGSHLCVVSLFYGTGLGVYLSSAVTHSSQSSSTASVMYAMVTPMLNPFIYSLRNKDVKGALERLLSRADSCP
From the text: Heterologous expression of human odorant receptors. 423 human odorant receptors including 337 predicted functional receptors were cloned. Odorant receptors that contained the first 20 amino acid of human rhodopsin (see, e.g., Krautwurst, D., et al., Cell 95, 917-926 (1998); herein incorporated by reference in its entirety) in pCl (Promega) were expressed in the Hana3A cell line along with a short form of mRTP1, RTP1S, (M37 to the C-terminal end), which enhanced functional expression of the odorant receptors. For immunocytochemistry, cells were fixed, permeabilized and incubated with monoclonal anti-rhodopsin antibody, 4D2 (see, e.g., Laird, D. W., et al., Invest Opthalmol Vis Sci 29.419428 (1988); herein incorporated by reference in its entirety), followed by Cy3-conjugated donkey anti-mouse IgG (Jackson Immunologicals). For FACS analysis, PE-conjugated donkey anti-mouse IgG (Jackson Immunologicals) was used. Western blot analysis was performed according to Mini-Protean 2 Cell (Bio-Rad) protocol. ECL (Amersham) was used for detecting proteins on membranes. After the initial exposure, the membrane was incubated with stripping buffer (25 mM Glycine-HCl [pH2], 1% SDS, 25 mM Glycine, 0.036N HCl, 1% SDS) and incubated with rabbit anti-GFP (Invitrogen). Luciferase assays were performed as described (see, e.g., Saito, H., et al., Cell 119:679-691 (2004); incorporated herein by reference in its entirety). […]
(§1) Luciferase assay and data analysis. […] Luminescence was measured using Wallac Victor 1420 (Perkin-Elmer). Normalized luciferase activity was calculated by the formula [luc(N)-luc(lowest)]/luc(highest)/RL (N) where luc(N)=luminescence of luciferase of a certain well; luc(lowest)=lowest luminescence of luciferase of a plate or a set of plates; luc(highest)=highest luminescence of luciferase of a plate or a set of plates; RL(N)=luminescence of Renilla luciferase of a certain well. Data was analyzed with Microsoft Excel and GraphPad Prism 4.

OR7D4 P79L = target: T2, OR7D4 P79L (Homo sapiens, UniProt Q8NG98, P79L); assay: Luciferase assay dose response, OR7D4 P79L; assay type: cell-based; conditions: all concentrations tested
T2 construct: expressed in transfected cells; host or cells: Hana3A (HEK293T-derived)
T2 sequence (Q8NG98 1-312 P79L): T1 sequence (Q8NG98 1-312) with P79L
From the text: Heterologous expression of human odorant receptors. 423 human odorant receptors including 337 predicted functional receptors were cloned. Odorant receptors that contained the first 20 amino acid of human rhodopsin (see, e.g., Krautwurst, D., et al., Cell 95, 917-926 (1998); herein incorporated by reference in its entirety) in pCl (Promega) were expressed in the Hana3A cell line along with a short form of mRTP1, RTP1S, (M37 to the C-terminal end), which enhanced functional expression of the odorant receptors. For immunocytochemistry, cells were fixed, permeabilized and incubated with monoclonal anti-rhodopsin antibody, 4D2 (see, e.g., Laird, D. W., et al., Invest Opthalmol Vis Sci 29.419428 (1988); herein incorporated by reference in its entirety), followed by Cy3-conjugated donkey anti-mouse IgG (Jackson Immunologicals). […]
as §1

Row | Structure (SMILES) | response of OR7D4 RT (normalized luciferase), ligand specificity panel (OR7D4 RT) | dose-response function of OR7D4 P79L in vitro (OR7D4 P79L) | response of OR7D4 in screen of human odorant receptor panel (OR7D4 RT; Hana3A cells, 337 human odorant receptors, stimulated with androstenone)
1 | C[C@@]12C=CC[C@H]1[C@@H]1CCC3=CC(=O)CC[C@]3(C)[C@H]1CC2 [androstadienone, androsta-4,16-dien-3-one] | responded selectively | severely impaired function | –
2 | C[C@]12CCC(=O)C[C@@H]1CC[C@@H]1[C@@H]2CC[C@]2(C)C=CC[C@@H]12 [androstenone, 5α-androst-16-en-3-one] | responded selectively | severely impaired function | robust responses
